# Entries after “also recorded” stand apart in the source; their conditions may differ.
# Experiments:
# SH-SY-5Y cells [1] = assay: HPLC of homocysteine in SH-SY-5Y cell lysates and medium; assay type: cell-based, human; settings: 25 μM DZA during folate deprivation
# Method: (§1) Glutathione levels were quantified in homogenates of SH-SY-5Y cells. Cultures were rinsed twice with Tris-buffered saline (TBS), scraped from the plate in a small volume of TBS and homogenized on ice. Medium was also utilized for analysis of HCY along with cellular lysates, since HCY is normally exported from cells. Homogenates (100 μl) were reduced by mixing with 50 μl of 100 μM N-acetylcysteine or with 30 μl of 30 μM cystamine (as an internal standard) and 10 μl of tri-carboxyethylphosphine (100 mg/ml in 0.05 M HCl). Samples were vortexed, incubated at room temperature for 30 minutes, then centrifuged at 10,000×g for 10 minutes. 80 μl of the resulting supernatant were combined with 160 μl of 2 M boric acid/4 mM EDTA (pH 10.5), followed by 80 μl of 1.0 mg/ml SBDF [7-fluorobenzo-2-oxa-1,3-diazole-4-sulfonate] in boric acid/EDTA buffer). Samples were mixed, incubated for 60 minutes at 60° C., equilibrated to reach temperature, and 50 μl of the sample was then injected into a Hewlett Packard model 1090 HPLC, which is used with a 1046A fluorescence detector and a Hewlett Packard 4.6×60 mm high-speed analytical column packed with 3 μM ODs (C18) Hypersil silica. The mobile phase consisted of methanol/0.2 M acetate buffer pH 4.0 (2/98 by volume). Glutathione concentrations were then determined by comparison of peak area ratios of glutathione to the internal standard N-acetylcysteine in the sample compared to peak areas obtained for a glutathione standard curve. Samples were derived from 3-4 normal and 3-4 ApoE−/− mice for each dietary condition, from ≧2 independent experiments (total n≧6 for each diet for both experiments).
# Medium was then decanted, cells were scraped from the plate and homogenized, and medium and cellular lysates, along with an aliquot of fresh medium that had not been in contact with cells, were subjected to HPLC analyses.
# [2] = tested on: differentiated SH-SY-5Y cells; assay: Intracellular ROS by DCFD fluorescence in differentiated SH-SY-5Y cells; assay type: cell-based, human; settings: for increase in ROS: 20 μM Abeta25-35 two hours; for increase in ROS resulting from folate deprivation: simultaneously with folate deprivation
# Method: Cultured cells were used to test individual agents and formulations. In general, SH-SY-5Y human neuroblastoma cells were cultured in DMEM (Cellgro) containing 10% fetal bovine serum in 5% CO2.
# For treatments with Abeta, differentiated cultures were transferred to medium without serum and treated for two hours with 20 μM Abeta25-35 (Sigma Chemical Co., St. Louis, Mo.). […] Louis, Mo.). In experiments calling for treatment of cell cultures with N-acetyl cysteine (NAC; NALC), cultures were treated with 10 mM NAC (Sigma Chemical Co., St. Louis, Mo.) after the culture was grown for two hours in serum-free medium.
# (§2) Intracellular reactive oxygen species (ROS) were monitored as described in Ekinci et al., 1999 (J. Biol. Chem., 274:30322-30327). Briefly, cells were incubated for 30 minutes with dichloro-fluorescein diacetate (DCFD; acetoxymethyl ester; Molecular Probes, Inc., Eugene, Oreg.), which is used to detect intracellular peroxide levels. Incubation was followed by rinsing of cultures in serum-free medium and immediate capture of images using UV optics. Images were captured under epifluorescent and phase-contrast illumination using a DAGE CCL-72 cooled CCD camera via a Scion LG-3 frame grabber operated by NIH Image (see the Internet at rsb.info.nih.gov/nih-image). Images were then stored as PICT files on a Macintosh Power PC 7100AV for subsequent analysis. At least 100 cells in randomly-selected fields from duplicate cultures derived from multiple experiments were scored for fluorescent intensity using NIH Image analysis software. Representative background areas devoid of cells were similarly analyzed and subtracted from cell values to yield net densitometric values. All fields for each individual assay were illuminated, captured, and processed under identical settings. Corresponding phase-contrast images were obtained. Cell aggregates were excluded from the assays; only individual cells were quantified. Values were exported to Excel for statistical analyses using Student's t test.
# For monitoring of intracellular peroxide concentrations as an index of ROS, cultures received 10 μl/ml DFCD (2′7′-dichlorofluorescein diacetate; Kodak) for 20 minutes. Cultures were then visualized under fluorescein UV optics (perikaryon; Ekinci and Shea, 1999, supra).
# SH-SY-5Y cells [3] = assay: Homocysteine-induced apoptosis, meracyanine staining of externalized PS; assay type: cell-based, human
# Method: FIG. 20 is a bar graph that depicts the results of experiments in which […] were treated with 250 μM homocysteine with or without 100 μM SAM, after which cultures were monitored for externalized PS via meracyanine staining as an indication of apoptosis. Values represent the mean (±standard error of the mean) in arbitrary densitometric units derived from densitometric analyses of 10-50 neurons from two cultures under each condition from two separate independent experiments.
# Levels of externalized phosphatidylserine (PS) were used as a measure of apoptosis (Rimon et al., 1997, J. Neurosci. Res., 48:563-570). Briefly, cultures were subjected to treatments then rinsed with PBS and incubated with 10 μl/ml merocyanine (Upstate Biotech, Lake Placid, N.Y.), followed by examination under rhodamine optics (Ekinci et al, 1999, J. Biol. Chem., 274:30322-30327).
# Homocysteine induces apoptosis in cultured cells. To investigate the effect of SAM on HC-induced apoptosis, 100 μM SAM and homocysteine were added to cultured SH-SY-5Y cells and apoptosis was monitored by meracyanine staining to detect the externalization of PS.
# [4] = reported; cited from earlier work
# [5] = tested on: differentiated SH-SY-5Y cells; assay: ATP levels in Abeta-treated SH-SY-5Y cells; assay type: cell-based, human; settings: 20 μM Abeta
# Method: FIG. 11 is a bar graph showing the results of experiments examining apoptosis in which differentiated SH-SY-5Y cells cultured in the presence or absence of Abeta, with or without ALCAR for two hours, and assayed for ATP using spectrophotometric methods known in the art.
# The effect of ALCAR on differentiated SH-SY-5Y cells treated with Abeta was examined. Cells were cultured in 20 μM Abeta in the presence and absence of ALCAR. Some cultures were pretreated with 50 μM ALCAR for 30 minutes. In these experiments, the ALCAR-containing medium was replaced with medium containing Abeta and no ALCAR then incubated for two hours before being assayed. Cultures were assayed for ROS, apoptosis, and ATP.
# normal and ApoE−/− mice = assay: TBAR analysis of brain oxidative damage in mice on dietary regimens; assay type: in vivo; settings: deficiency in vitamin E alone
# Description: Damage resulting from the generation of intracellular reactive oxygen species can also be quantified using a TBAR assay (Ohkawa et al., Anal. Biochem., 95:351-358, 1979). This method is used to determine cellular lipid hydroperoxides in cultured cells by thiobarbituric acid reaction. Lipid hydroperoxides break down to malondialdehyde and other aldehydes. These react with thiobarbituric acid in a mildly acidic environment, which results in formation of a chromophore. The resulting chromophore is measured by light absorption or fluorescence techniques.
# After one month, total brain tissue was harvested and subjected to TBAR analyses as described in Wittaker et al. (1996, supra).
# Additional mice received the deficient diet supplemented with DZA (0.4 g/kg total diet weight), SAM (80 mg/kg diet weight) and NAC (1 g/kg diet weight). Total brain tissue was harvested and analyzed for TBARs.
# cortical neurons = assay: Intracellular ROS by DCFD fluorescence in cortical neurons; assay type: cell-based, mice; settings: folate-deficient medium two hours, 0.15 mg/ml vitamin E as alpha-tocopherol
# Method: as §2, with “Ekinci” left out, “test. […]” for “test.”
# SH-SY-5Y cells [6] = assay: HPLC analysis of glutathione and thiols in SH-SY-5Y cells; assay type: cell-based, human; settings: NAC treatment in the absence of folate
# Method: as §1
# NAC directly scavenges ROS and also provide a source of intracellular cysteine for synthesis of glutathione during conditions of oxidative stress. […] Differentiated SH-SY-5Y cells with and without NAC treatment were subjected to HPLC along with 50 μM each of multiple thiol standards (“Standards”) as indicated in FIGS. 18A to 18C.
# [7] = no folate + 25 μM DZA, two hours
compound,measurement,setting,value
"Nc1nccc2c1ncn2[C@@H]1O[C@H](CO)[C@@H](O)[C@H]1O [DZA, 3-deazaadenosine]",HCY formation and export,SH-SY-5Y cells [1],prevented HCY formation and export to a level below that observed in cultures receiving folate
same,attenuation of the increase in ROS from folate deprivation,[2]; 25 μM DZA during folate deprivation,approximately 50%
same,attenuation of the increase in ROS from folate deprivation,[2]; 25 μM DZA simultaneously with folate deprivation,attenuated the increase in ROS by slightly more than half
same,ROS % increase vs. control,[2]; [7],16%
same,ROS Mean ± SEM,[2]; [7],8.8 ± 0.3
"C[S+](CC[C@H](N)C(=O)O)C[C@H]1O[C@@H](n2cnc3c(N)ncnc32)[C@H](O)[C@@H]1O (some centres unmarked) [SAM, S-adenosyl methionine]",homocysteine-induced PS externalization,"SH-SY-5Y cells [3]; 100 μM SAM, 2 hours",prevented PS externalization
same,reduction of homocysteine-induced PS externalization,"SH-SY-5Y cells [3]; 100 μM SAM, 24 hours",approximately 50%
same,entry into the CNS,[4],reported to enter or have effects in the CNS
same,increase in ROS generated by folate deprivation,"[2]; 100 μM SAM, two hours",attenuation of the increase in ROS; also recorded: reduced ROS levels to a greater extent than did incubation of cells in the presence of folate
"Abeta: beta-amyloid fragment of the amyloid precursor protein; Abeta25-35 (Sigma) used at 20 μM (GSNKGAIIGLM; Amyloid-beta protein 42; UniProt P05067 696-706, looked up, fragment)",cellular ATP,[5],reduced cellular ATP
same,increase in ROS,[2]; folate-deprived cells,144±10%
same,increase in ROS,[2]; in the presence of folate,34±4%
"Cc1c(C)c2c(c(C)c1O)CC[C@@](C)(CCC[C@H](C)CCC[C@H](C)CCCC(C)C)O2 [vitamin E, alpha-tocopherol]",ROS in brain (TBAR),normal and ApoE−/− mice; ApoE−/− knockout mice,did increase ROS
same,ROS in brain (TBAR),normal and ApoE−/− mice; iron-fed normal mice,did not increase ROS
same,ROS induction by Abeta,"[2]; additional experiments, vitamin E",prevented
same,ROS,"[2]; single agent, control cells and cells exposed to Abeta, two hours",reduced ROS
same,ROS induced by Abeta,[2]; vitamin E (0.15 ng/mL) applied 15 minutes after Abeta,"efficacy of vitamin E was markedly reduced; also recorded: but not vitamin E, quenched ROS"
same,ROS induced by Abeta,"[2]; vitamin E (0.15 ng/mL) provided simultaneously with Abeta, two hours",approximately identical to that of control cells
same,ROS generation during folate deprivation,cortical neurons,not prevented
"N[C@@H](CCS)C(=O)O [Homocysteine, homocysteine]",externalization of PS,"SH-SY-5Y cells [3]; homocysteine, 2 and 24 hours",progressively induced externalization of PS
"CC(=O)N[C@@H](CS)C(=O)O [NAC, N-acetyl cysteine]",intracellular cysteine (HPLC),SH-SY-5Y cells [6],marked increase
same,intracellular glutathione (HPLC),SH-SY-5Y cells [6],marked increase
same,entry into the CNS,[4],reported to enter or have effects in the CNS
same,increase in ROS resulting from folate deprivation,"[2]; 1 mM NAC, two hours",prevented the increase in ROS
same,increase in ROS resulting from folate deprivation,"[2]; 10 mM NAC, two hours",prevented the increase in ROS
same,ROS induced by Abeta,[2]; NAC (10 mM) applied 15 minutes after Abeta,quenched ROS
